How the values were obtained:
[1] = for amount of peripheral fibrosis surrounding the microsphere depot in the subcutis / intensity of the granulomatous inflammatory reaction within the microsphere mass: co-administration with EPO-containing microparticles; for color of the skin overlying microsphere depots: rat, in vivo
Protocol: Animals were anesthetized with 5% halothane. Each animal was shaved and the back swabbed with alcohol. […] The microparticles were prepared as described above. The microparticles were injected into an interscapular site using a 21 gauge thinwall needle attached to a 1 mL syringe. Animals were dosed to receive a total of 10,000 U EPO either alone (Group A) or in combination with a total of 5 mg of hydrocortisone acetate (Group B), or 1 mg (Group C) or 5 mg (Group D) of triamcinolone diacetate. Animals were followed for 35 days post implantation.

[2] = Example 1: hematocrit testing; type: in vivo, rat; conditions: day 36; EPO microparticles plus 1 mg secondary agent (Group C)
Protocol: Animals were anesthetized with 5% halothane. […] The microparticles were prepared as described above. […] Hematocrits were evaluated manually following centrifugation for 5 minutes at 8000 rpm (on four animals per group) using a capillary tube.

[3] = tested on: anti-EPO antibody; test: Example 3: immunogenicity, anti-EPO antibody ELISA of sera; type: in vivo, rat
[4] = Example 3: serum EPO levels by ELISA; type: in vivo, rat; conditions: 10,000 U EPO microparticles plus 100 mg placebo microparticles (A), 5 mg triamcinolone acetonide admixed with 100 mg placebo microparticles (B) or 100 mg 20% hydrocortisone microparticles (C)
Protocol: (§1) Animals were dosed to receive a total of 10,000 Units of EPO in combination with a total of 100 mg of placebo microparticles (Group A), 5 mg of triamcinolone acetonide and 100 mg of placebo microparticles admixed (Group B) and 100 mg of 20% w/w hydrocortisone-containing microparticles (Group C). Sample collection time points were pre-bleed, 1, 2, 6, 12, 19, and 26 days.
To evaluate EPO serum levels, 0.4 mL samples were collected via tail vein on the days specified in Table 3 (four animals per group). After clotting, the samples were centrifuged and frozen (−70° C.).

[5] = Example 3: hematocrit testing; type: in vivo, rat; conditions: day 19 (maximum for corticosteroid groups); Groups A, B, C of Table 3
Protocol: as §1
To evaluate EPO serum levels, 0.4 mL samples were collected via tail vein on the days specified in Table 3 (four animals per group). After clotting, the samples were centrifuged and frozen (−70° C.). Serum EPO levels were quantitated by ELISA (R&D Systems), according to the manufacturer's instructions (Cat. No. DEP00, and the data were normalized for dose and body weight. Starting on day 12, serum samples were also assessed for EPO antibody levels weekly, using an ELISA This assay detects all antibody subclasses inasmuch as the detecting antibody is reactive with both immunoglobulin heavy (γ) and light chains. Hematocrit analyses were carried out as described in Example 1, and were tested at the following intervals relative to time of microsparticle administration: pre-bleed, 1, 2, 6, 12, 19, and 26 days.

| color of the skin overlying microsphere depots [1] | anti-EPO antibody titer ([3]; day 19, the one positive animal of Group B) | EPO antibody titer as percentage of the titer in the control group ([3]; day 33) | average serum EPO levels (steady state) between day 6 and day 19 [4] | Structure (SMILES) | amount of peripheral fibrosis surrounding the microsphere depot in the subcutis [1] | intensity of the granulomatous inflammatory reaction within the microsphere mass [1] | hematocrit values [2] | incidence of animals with anti-EPO antibodies ([3]; day 19, n=4/group) | incidence of animals with anti-EPO antibodies ([3]; day 33) | hematocrit values [5] |
| --- | --- | --- | --- | --- | --- | --- | --- | --- | --- | --- |
| pallid in most rats |  |  |  | CC(=O)OCC(=O)[C@@]1(O)[C@H](OC(C)=O)C[C@H]2[C@@H]3CCC4=CC(=O)C=C[C@]4(C)[C@@]3(F)[C@@H](O)C[C@@]21C [triamcinolone diacetate] | diminished | reduced | mid-60% |  |  |  |
| pallid in most rats |  |  |  | CC(=O)OCC(=O)[C@@]1(O)CC[C@H]2[C@@H]3CCC4=CC(=O)CC[C@]4(C)[C@H]3[C@@H](O)C[C@@]21C [hydrocortisone acetate] | diminished | reduced |  |  |  |  |
|  | 1800 | about 50% | 148.6±102.9 mU/mL | CC1(C)O[C@@H]2C[C@H]3[C@@H]4CCC5=CC(=O)C=C[C@]5(C)[C@@]4(F)[C@@H](O)C[C@]3(C)[C@]2(C(=O)CO)O1 [triamcinolone acetonide] |  |  |  | only one animal | 75% | 69.3%±3.3 |
